Test results: paper PMC5046085, “Systemic Inhibition of CREB is Well-tolerated in vivo” (Scientific Reports, 2016)

Legend:
[1] = In vivo pharmacokinetics, plasma concentration by LC-MS/MS; details: female, mouse, single dose 10 mg/kg IP, C57BL/6 mice, read-out: plasma concentration 24 h after drug administration
Experimental: Then the blood was collected at different time points and the plasma drug concentration was measured using tandem mass spectroscopy coupled with liquid chromatography (LC/MS-MS) methods.
Blood was collected at 0.083, 0.25, 0.5, 1, 2, 4, 8, 24 h post drug administration. Blood was collected from each mouse from the submandibular vein (3 time points/mouse). The blood was collected into the EDTA-K2 tubes, and centrifuged at 4,000× rpm for 10 min at 4 °C. The plasma was removed and stored at −80 °C until further analysis. The quantitative LC-MS/MS analyses were conducted using an Agilent 1200 HPLC system coupled to an API 4000 mass spectrometer equipped with an API electrospray ionization (ESI) source. The mobile phases used are a linear gradient of mobile phase A (10 mM ammonium acetate in H2O) and mobile phase B (10 mM ammonium acetate in 90% MeOH). The column used was Xtimate C18 2.1 × 30 mm (3 μm) with a flow rate of 0.6 mL/min. The mass spectrometer was operated in ESI positive ion mode and detection of the drugs was performed by multiple reaction monitoring (MRM).

Gal4-c-Myb(241–325) = biological target: T1, Gal4-c-Myb(241–325) (Homo sapiens, UniProt P10242); assay: Gal4-c-Myb transcription reporter assay in HEK293T cells; format: cell-based; details: pG5B reporter, increasing concentrations, 5–7 h
T1 construct: Gal4-c-Myb (241–325) was a generous gift of Dr. Anders Näär; expressed in transfected cells; host or cells: HEK293T
Experimental: (§1) In these transcription reporter assays, HEK293T cells were transfected with Gal4-fusions along with a Gal4-responsive luciferase reporter or SRF-responsive luciferase (SRE-Luc) reporter. For Gal4-TEAD4, coactivator YAP1 was also included for transfection to enhance its transcription activity. Then the cells were treated with increasing concentrations of 666-15. […] (Fig. 2D).
(§2) Figure 2 Selectivity of 666-15 against different transcription factors. […] HEK 293T cells were transfected with Gal4-MLL/pG5B (A) Gal4-c-Myb/pG5B (B) Gal4-TEAD4/YAP1/pG5B (C) or SRE-Luc (D). Then the transfected cells were treated with increasing concentrations of 666-15 for 5–7 h. The luciferase activity was then measured, normalized to the protein content and expressed as relative luciferase unit (RLuc)/μg protein.
(§3) 666-15 was described before. […]
(§4) HEK293T cells (ATCC) were routinely cultured in Dulbecco’s modified Eagle medium (DMEM, Life Technologies) supplemented with 10% fetal bovine serum (Hyclone) and non-essential amino acids (Life Technologies). […] The luciferase activity was measured by a tube luminometer (Berthold) using luciferase assay reagent (Promega). The protein concentration of the cell lysates in each well was determined using a Protein Assay Dye Reagent (Biorad). The luciferase activity in each well was normalized to the protein content and expressed as RLuc (relative luciferase unit)/μg protein.

Gal4-MLL(2840–2858) = test system: T2, Gal4-MLL(2840–2858); assay: Gal4-MLL transcription reporter assay in HEK293T cells; format: cell-based, human; details: pG5B reporter, increasing concentrations, 5–7 h
T2 construct: human MLL (2840–2858) ([…]); expressed in transfected cells; host or cells: HEK293T
Experimental: as §1, §2, §3, §4

c-Myb = test system: c-Myb; set-up: method as in PMID 15585582, PMID 25740244; details: cited from earlier work

T1 sequence (P10242 with tags, fused parts or gaps limits assumed): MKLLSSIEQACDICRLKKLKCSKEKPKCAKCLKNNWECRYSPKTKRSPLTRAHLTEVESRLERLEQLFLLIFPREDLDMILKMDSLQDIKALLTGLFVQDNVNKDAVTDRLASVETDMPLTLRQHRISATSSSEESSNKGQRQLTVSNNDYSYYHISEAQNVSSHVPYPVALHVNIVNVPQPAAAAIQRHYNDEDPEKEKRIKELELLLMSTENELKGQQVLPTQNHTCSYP
T2 sequence (P04386 with tags, fused parts or gaps): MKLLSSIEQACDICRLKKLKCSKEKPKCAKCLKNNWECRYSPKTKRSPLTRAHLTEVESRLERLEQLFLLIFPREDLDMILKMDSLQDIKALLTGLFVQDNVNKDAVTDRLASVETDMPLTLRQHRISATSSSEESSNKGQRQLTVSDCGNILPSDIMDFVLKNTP

Compound | concentration at 24 h [1] | inhibition of Gal4-c-Myb-mediated transcription (Gal4-c-Myb(241–325)) | inhibition of Gal4-MLL-mediated transcription (Gal4-MLL(2840–2858)) | effect on c-Myb's activity (c-Myb)
NCCCOc1cc2ccccc2cc1C(=O)NCCOc1cc2ccccc2cc1C(=O)Nc1ccc(Cl)cc1O [666-15] | 50 to 100 nM | no inhibition | no inhibition | –
O=C(Nc1ccc(Cl)cc1)c1cc2ccccc2cc1OP(=O)(O)O [naphthol AS-E phosphate] | – | – | – | inhibits c-Myb’s activity
